Measured values published in patent publication US6358885B1, “Substituted phenylheterocyclic herbicides” (Mississippi State University, priority 1992, dated 2002).

Legend:
[1] = tested on: morningglory; assay: Test B preemergence/postemergence greenhouse plant response rating 0 to 10; type: in vivo, Ipomoea hederacea; conditions: 0 to 10 scale
Method in brief: (§1)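 Test chemicals, dissolved in a non-phytotoxic solvent, were applied to soil at planting and, at the same time, over foliage of seedlings at the one to four leaf stage.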

[2] = tested on: wheat; assay: Test C preemergence/postemergence greenhouse plant response rating 0 to 100; type: in vivo, Triticum aestivum
Method in brief: (§2)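 Compounds in non-phytotoxic solvent went onto sandy loam before emergence (seeded one day earlier) or onto plants at the one-to-four leaf stage. Duck salad was treated via flood water (~2.5 cm, maintained) over silt loam.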

[3] = tested on: speedwell; assay: as above; type: in vivo, Veronica persica
Method in brief: as §2

[4] = tested on: wheat; assay: Test B preemergence/postemergence greenhouse plant response rating 0 to 10; type: in vivo, Triticum aestivum; conditions: 0 to 10 scale
Method in brief: as §1

[5] = tested on: barnyardgrass; assay: as above; type: in vivo, Echinochloa crus-galli; conditions: 0 to 10 scale
Method in brief: as §1

[6] = tested on: blackgrass; assay: Test C preemergence/postemergence greenhouse plant response rating 0 to 100; type: in vivo, Alopecurus myosuroides; conditions: for Plant response rating, Blackgrass: 62 g/ha, 0 to 100 scale
Method in brief: as §2

[7] = tested on: bedstraw; assay: as above; type: in vivo, Galium aparine; conditions: for Plant response rating, Bedstraw: 62 g/ha, 0 to 100 scale
Method in brief: as §2

[8] = tested on: wild oat; assay: as above; type: in vivo, Avena fatua
Method in brief: as §2

[9] = tested on: crabgrass; assay: as above; type: in vivo, Digitaria sanguinalis; conditions: for Plant response rating, Crabgrass: 62 g/ha, 0 to 100 scale
Method in brief: as §2

[10] = tested on: velvetleaf; assay: Test B preemergence/postemergence greenhouse plant response rating 0 to 10; type: in vivo, Abutilon theophrasti; conditions: 0 to 10 scale
Method in brief: as §1

[11] = tested on: cotton; assay: as above; type: in vivo, Gossypium hirsutum; conditions: 0 to 10 scale
Method in brief: as §1

[12] = tested on: rape; assay: Test C preemergence/postemergence greenhouse plant response rating 0 to 100; type: in vivo, Brassica napus; conditions: for Plant response rating, Rape: 62 g/ha, 0 to 100 scale
Method in brief: as §2

[13] = tested on: giant foxtail; assay: as above; type: in vivo, Setaria faberii; conditions: for Plant response rating, Giant foxtail: 62 g/ha, 0 to 100 scale
Method in brief: as §2

[14] = POSTEMERGENCE, 62 g/ha, 0 to 100 scale

Question: What does the source list for `CCN1C(=O)COc2cc(F)c(-c3nn4c(c3Cl)CCCC4)cc21` [Compound 54]?
Answer: Plant response rating, Morningglory ([1]; POSTEMERGENCE, Rate 10 g/ha): 9; Plant response rating, Morningglory ([1]; POSTEMERGENCE, Rate 50 g/ha): 9; Plant response rating, Morningglory ([1]; PREEMERGENCE, Rate 50 g/ha): 3; Plant response rating, Wheat [2, 14]: 60; Plant response rating (0 to 100), Wheat ([2]; POSTEMERGENCE, Rate 1 g/ha): 20; Plant response rating (0 to 100), Wheat ([2]; POSTEMERGENCE, Rate 4 g/ha): 40; Plant response rating (0 to 100), Wheat ([2]; PREEMERGENCE, Rate 1 g/ha): 0; Plant response rating (0 to 100), Wheat ([2]; PREEMERGENCE, Rate 4 g/ha): 0; Plant response rating (0 to 100), Wheat ([2]; Rate 16 g/ha, POSTEMERGENCE): 60; Plant response rating (0 to 100), Wheat ([2]; Rate 16 g/ha, PREEMERGENCE): 10; Plant response rating Speedwell [3, 14]: 100; Plant response rating (0 to 100), Speedwell ([3]; POSTEMERGENCE, Rate 1 g/ha): 100; Plant response rating (0 to 100), Speedwell ([3]; POSTEMERGENCE, Rate 4 g/ha): 100; Plant response rating (0 to 100), Speedwell ([3]; PREEMERGENCE, Rate 1 g/ha): 50; Plant response rating (0 to 100), Speedwell ([3]; PREEMERGENCE, Rate 4 g/ha): 100; Plant response rating (0 to 100), Speedwell ([3]; Rate 16 g/ha, POSTEMERGENCE): 100; Plant response rating (0 to 100), Speedwell ([3]; Rate 16 g/ha, PREEMERGENCE): 100; Plant response rating, Wheat ([4]; POSTEMERGENCE, Rate 10 g/ha): 6; Plant response rating, Wheat ([4]; POSTEMERGENCE, Rate 50 g/ha): 6; Plant response rating, Wheat ([4]; PREEMERGENCE, Rate 50 g/ha): 3; Plant response rating, Barnyardgrass ([5]; POSTEMERGENCE, Rate 10 g/ha): 3; Plant response rating, Barnyardgrass ([5]; POSTEMERGENCE, Rate 50 g/ha): 5; Plant response rating, Barnyardgrass ([5]; PREEMERGENCE, Rate 10 g/ha): 0; Plant response rating, Barnyardgrass ([5]; PREEMERGENCE, Rate 50 g/ha): 3; Plant response rating, Blackgrass ([6]; POSTEMERGENCE): 60; Plant response rating (0 to 100), Blackgrass ([6]; POSTEMERGENCE, Rate 1 g/ha): 30; Plant response rating (0 to 100), Blackgrass ([6]; POSTEMERGENCE, Rate 4 g/ha): 40; Plant response rating, Blackgrass ([6]; PREEMERGENCE): 70; Plant response rating (0 to 100), Blackgrass ([6]; PREEMERGENCE, Rate 1 g/ha): 0; Plant response rating (0 to 100), Blackgrass ([6]; PREEMERGENCE, Rate 4 g/ha): 10; Plant response rating (0 to 100), Blackgrass ([6]; Rate 16 g/ha, POSTEMERGENCE): 50; Plant response rating (0 to 100), Blackgrass ([6]; Rate 16 g/ha, PREEMERGENCE): 20; Plant response rating, Bedstraw ([7]; POSTEMERGENCE): 100; Plant response rating (0 to 100), Bedstraw ([7]; POSTEMERGENCE, Rate 1 g/ha): 65; Plant response rating (0 to 100), Bedstraw ([7]; POSTEMERGENCE, Rate 4 g/ha): 85; Plant response rating, Bedstraw ([7]; PREEMERGENCE): 50; Plant response rating (0 to 100), Bedstraw ([7]; PREEMERGENCE, Rate 1 g/ha): 0; Plant response rating (0 to 100), Bedstraw ([7]; PREEMERGENCE, Rate 4 g/ha): 0; Plant response rating (0 to 100), Bedstraw ([7]; Rate 16 g/ha, POSTEMERGENCE): 100; Plant response rating (0 to 100), Bedstraw ([7]; Rate 16 g/ha, PREEMERGENCE): 30; Plant response rating, Wild oat [8, 14]: 60; Plant response rating (0 to 100), Wild oat ([8]; POSTEMERGENCE, Rate 1 g/ha): 20; Plant response rating (0 to 100), Wild oat ([8]; POSTEMERGENCE, Rate 4 g/ha): 30; Plant response rating (0 to 100), Wild oat ([8]; PREEMERGENCE, Rate 1 g/ha): 0; Plant response rating (0 to 100), Wild oat ([8]; PREEMERGENCE, Rate 4 g/ha): 0; Plant response rating (0 to 100), Wild oat ([8]; Rate 16 g/ha, POSTEMERGENCE): 40; Plant response rating (0 to 100), Wild oat ([8]; Rate 16 g/ha, PREEMERGENCE): 10; Plant response rating, Crabgrass ([9]; POSTEMERGENCE): 50; Plant response rating (0 to 100), Crabgrass ([9]; POSTEMERGENCE, Rate 1 g/ha): 10; Plant response rating (0 to 100), Crabgrass ([9]; POSTEMERGENCE, Rate 4 g/ha): 20; Plant response rating, Crabgrass ([9]; PREEMERGENCE): 50; Plant response rating (0 to 100), Crabgrass ([9]; PREEMERGENCE, Rate 1 g/ha): 0; Plant response rating (0 to 100), Crabgrass ([9]; PREEMERGENCE, Rate 4 g/ha): 0; Plant response rating (0 to 100), Crabgrass ([9]; Rate 16 g/ha, POSTEMERGENCE): 30; Plant response rating (0 to 100), Crabgrass ([9]; Rate 16 g/ha, PREEMERGENCE): 0; Plant response rating, Velvetleaf ([10]; POSTEMERGENCE, Rate 10 g/ha): 8; Plant response rating, Velvetleaf ([10]; POSTEMERGENCE, Rate 50 g/ha): 9; Plant response rating, Velvetleaf ([10]; PREEMERGENCE, Rate 50 g/ha): 10; Plant response rating, Cotton ([11]; POSTEMERGENCE, Rate 10 g/ha): 10; Plant response rating, Cotton ([11]; POSTEMERGENCE, Rate 50 g/ha): 10; Plant response rating, Cotton ([11]; PREEMERGENCE, Rate 10 g/ha): 1; Plant response rating, Cotton ([11]; PREEMERGENCE, Rate 50 g/ha): 2; Plant response rating, Rape ([12]; POSTEMERGENCE): 100; Plant response rating (0 to 100), Rape ([12]; POSTEMERGENCE, Rate 1 g/ha): 50; Plant response rating (0 to 100), Rape ([12]; POSTEMERGENCE, Rate 4 g/ha): 50; Plant response rating, Rape ([12]; PREEMERGENCE): 10; Plant response rating (0 to 100), Rape ([12]; PREEMERGENCE, Rate 1 g/ha): 0; Plant response rating (0 to 100), Rape ([12]; PREEMERGENCE, Rate 4 g/ha): 0; Plant response rating (0 to 100), Rape ([12]; Rate 16 g/ha, POSTEMERGENCE): 100; Plant response rating (0 to 100), Rape ([12]; Rate 16 g/ha, PREEMERGENCE): 0; Plant response rating, Giant foxtail ([13]; POSTEMERGENCE): 70; Plant response rating (0 to 100), Giant foxtail ([13]; POSTEMERGENCE, Rate 1 g/ha): 10; Plant response rating (0 to 100), Giant foxtail ([13]; POSTEMERGENCE, Rate 4 g/ha): 20; Plant response rating, Giant foxtail ([13]; PREEMERGENCE): 60; Plant response rating (0 to 100), Giant foxtail ([13]; PREEMERGENCE, Rate 1 g/ha): 0; Plant response rating (0 to 100), Giant foxtail ([13]; PREEMERGENCE, Rate 4 g/ha): 0; Plant response rating (0 to 100), Giant foxtail ([13]; Rate 16 g/ha, POSTEMERGENCE): 40; Plant response rating (0 to 100), Giant foxtail ([13]; Rate 16 g/ha, PREEMERGENCE): 0
